Entries after “also recorded” stand apart in the source; their conditions may differ. No end group written: not given here.
Columns and labels:
[1] = target: Drp1/Fis1 interaction (Homo sapiens, UniProt O00429); test: Direct binding between recombinant Drp1 and Fis1 (immunoprecipitation); conditions: peptides 1 μM each, Drp1 50 ng, Fis1 50 ng, FIG. 2D
Experimental: In another set of experiments, Drp1 was incubated with Fis1 and the complex was immunoprecipitated using anti-Drp1 antibody followed by immunoblotting with anti-Fis1 antibody. For direct binding between Drp1 and Fis1, recombinant Drp1 (50 ng) and Fis1 (50 ng) were incubated in PBS containing 1 mM DSP for 30 min in the presence or absence of Drp1/Fis1 peptides (1 μM each) or control peptide TAT. After termination of the reaction by 50 mM Tris-HCl, pH 7.5, reaction mixtures were subjected to immunoprecipitation with anti-Fis1 antibody in the presence of 1% Triton X-100. Immunoprecipitates were washed with PBS containing 1% Triton X-100 and analyzed by SDS-PAGE and subsequent immunoblotting with antibodies to Fis1 and Drp1.

[2] = tested on: Primary rat dopaminergic neurons; test: Neurite loss of primary dopaminergic neurons exposed to MPP+ (TH staining); format: cell-based; conditions: P110 1 μM, MPP+ 1 μM, FIG. 10C
Experimental: (§1) Primary rat dopaminergic neurons (cultured for 6 days) were treated without or with P110 (1 μM) followed by treatment with or without MPP+(1 μM). Two hrs following MPP+ treatment, the cells were stained with MITOSOX™ red (to measure mitochondrial superoxide production) and anti-TH antibody (a marker of dopaminergic neurons). Fifteen hrs after MPP+ treatment, cells were stained with anti-TH antibody and anti-Tom20 antibody (a marker of mitochondria).

[3] = tested on: SH-SY5Y cells; test: Apoptosis of SH-SY5Y cells by annexin V staining; format: cell-based, human; conditions: 8 hours after MPP+ exposure, FIG. 9B
Experimental: Apoptosis was determined by annexin V staining 8 hours after MPP+ exposure. The number of apoptotic cells was expressed as mean±S.E. of percentage relative to total number of cells.

[4] = tested on: SH-SY5Y cells; test: Mitochondrial morphology/fragmentation in SH-SY5Y cells (TOM20 staining); format: cell-based, human; conditions: for percentage of cells with fragmented mitochondria: P110 1 μM 30 min, FIG. 5
Experimental: To determine effects of P110 on mitochondrial morphology in response to mitochondrial stresses, an immuno-staining approach was used. In one experiment, SH-SY5Y neuronal cells were treated with Drp1 peptides or Drp1 siRNA followed by treatment of MPP+. The cells were then stained with TOM20 and Hoechst stain.
In another experiment, cultured SH-SY5Y cells were treated with P110 (1 μM) for 30 min followed by incubation with MPP+(2 mM, 4 hrs) or CCCP (5 uM, 30 min). The cells were then stained with anti-Tom 20 antibody (green) and Hoechst stain (scale bar 0.5 μm). Mitochondrial morphology was analyzed using 63× oil lens. The data were analyzed and are presented as a histogram in which the percentage of cells with fragmented mitochondria relative to the total number of cells is presented as the mean±S.E. of 3 independent experiments. At least 200 cells per group were counted.

[5] = tested on: Primary rat dopaminergic neurons; test: Mitochondrial superoxide production in primary dopaminergic neurons exposed to MPP+; format: cell-based; conditions: P110 1 μM, MPP+ 1 μM, 2 hrs, FIG. 10A
Experimental: as §1

[6] = tested on: Drp1; test: Confocal imaging of Drp1 localization on mitochondria in SH-SY5Y cells; format: cell-based, human; conditions: SH-SY5Y exposed to MPP+ or CCCP, FIG. 3G
Experimental: The effects of MPP+ or CCCP on translocation of Drp1 in the absence and presence of P110 was measured using confocal microscopy. Cultured SH-SY5Y cells in black 96-well plate were treated with Drp1 peptide inhibitor P110 (1 μM) 30 min prior to treatment of MPP+ (2 mM) or CCCP (5 uM). After 2 hrs of treatment, cells were stained with MITOSOX™ (red mitochondrial superoxide indicator) (5 uM, for 10 min, mitochondrial ROS) or TMRM (0.5 uM, for 20 min, MMP) at 37° C. For total ROS detection, cells were treated with MPP+ or CCCP for 24 hrs. ROS level was measured by CM-H2DCFDA (1 μM for 30 min, Invitrogen). Cells were washed with PBS for three times. The detection was performed in a fluorescence microplate reader (Tecan, Infinite M1000) according to manufacturer's instructions. Measurements were normalized to the cell number counted using Hoechst staining.
The data, quantitated by Image J software, is provided in a histogram FIG. 3G.

[7] = tested on: isolated mouse liver mitochondria with Drp1 recombinant protein; test: Superoxide production of isolated mouse liver mitochondria after addition of recombinant Drp1; format: biochemical; conditions: isolated mouse liver mitochondria 50 μg, Drp1 50 ng, P110 1 μM, p<0.05, n=3, FIG. 6C
Experimental: Mitochondrial membrane potential was also determined using TMRM (tetramethylrhodamine methylester). Fifty μg of mitochondria were incubated with recombinant Drp1 (50 ng) followed by incubation with TMRM (0.5 μM) in the presence or absence of P110 (1 μM) or NAC (2.5 mM). Fluoresence detection was performed using black 96-well plates in a fluorescence microplate reader at 560 nm excitation and 690 nm emission and potential was assessed by quenching of the fluorescent signal. The data are presented as mean±S.E. of percentage relative to control mitochondria from three independent experiments (FIG. 6B, #, p<0.05 vs. control cells; *, p<0.05; **, P<0.01 vs. MPP+- or CCCP-treated cells). Isolated mouse liver mitochondria (50 μg) were incubated with Drp1 recombinant protein (50 ng) in the presence or absence of P110 (1 μM). A kinetic change of mitochondrial superoxide production was determined by using MITOSOX™ (red mitochondrial superoxide indicator). […] Mitochondrial membrane potential of isolated mouse liver mitochondria was determined by TMRM, as described above, in the indicated groups. […] Protein levels of cytochrome c in the mitochondria were determined by western blot analysis with anti-cytochrome c antibodies in the indicated groups (insert, FIG. 6D). Total ROS production was determined by staining SH-SY5Y cells with CM2HDCFA (1 μM […] at 37° C.) in the indicated groups. […]

Sequence of Drp1/Fis1 interaction (O00429 1-710 isoform O00429-3): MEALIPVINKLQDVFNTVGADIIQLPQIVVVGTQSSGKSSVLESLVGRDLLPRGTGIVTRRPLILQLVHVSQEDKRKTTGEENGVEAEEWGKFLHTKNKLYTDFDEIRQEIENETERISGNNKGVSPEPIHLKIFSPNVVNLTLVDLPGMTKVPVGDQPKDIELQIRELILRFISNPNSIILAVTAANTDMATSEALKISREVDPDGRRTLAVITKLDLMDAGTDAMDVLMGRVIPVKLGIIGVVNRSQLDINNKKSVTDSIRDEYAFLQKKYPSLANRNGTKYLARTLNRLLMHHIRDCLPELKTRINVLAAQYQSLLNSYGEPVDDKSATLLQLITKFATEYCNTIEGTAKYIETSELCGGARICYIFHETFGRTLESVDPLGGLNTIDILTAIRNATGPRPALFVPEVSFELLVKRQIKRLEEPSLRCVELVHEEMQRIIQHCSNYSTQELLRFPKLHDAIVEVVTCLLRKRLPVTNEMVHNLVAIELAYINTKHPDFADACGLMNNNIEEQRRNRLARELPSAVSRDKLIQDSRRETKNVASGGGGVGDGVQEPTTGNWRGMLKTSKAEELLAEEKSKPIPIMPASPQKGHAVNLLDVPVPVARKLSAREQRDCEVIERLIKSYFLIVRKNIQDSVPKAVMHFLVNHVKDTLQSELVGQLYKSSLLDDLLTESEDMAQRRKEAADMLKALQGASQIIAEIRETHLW

RRRQRRKKRGYGGDLLPRGS (RRRQRRKKRGYGGDLLPRGS-NH2) [P110, TAT47-57 carrier, GG linker, Drp1 region 110 (GTPase domain) peptide DLLPRGS; C-terminus C(O)-NH2]
Drp1-Fis1 interaction, recombinant proteins [1]: blocked
neurite loss of dopaminergic neurons (TH) [2]: reduced neurite loss
number of apoptotic cells (annexin V) [3]: greatly reduced
percentage of cells with fragmented mitochondria ([4]; then CCCP 5 uM 30 min, 63% without P110): 23%
percentage of cells with fragmented mitochondria ([4]; then MPP+ 2 mM 4 hrs, 50% without P110): 14%
reduction of mitochondrial fragmentation in cells exposed to MPP+ ([4]; SH-SY5Y, MPP+, p<0.01, n=3, FIG. 4A, 4B): 70%
mitochondrial morphology/network in control (non-stressed) cells ([4]; SH-SY5Y, no stressor): minimal effects; also recorded: no effect; also recorded: did not observe dramatic difference
mitochondrial ROS (superoxide) production [5]: reduced
co-localization of Drp1 with mitochondria [6]: greatly reduced
Drp1-induced ROS (superoxide) elevation in the mitochondria [7]: abolished

Reference: patent publication US10912815B2, “Inhibitors of mitochondrial fission and methods of use thereof” (The Board of Trustees of the Leland Stanford Junior …, priority 2011, dated 2021)
